Laboratory results as given in article PMC6225339 (Journal of the American Chemical Society, 2018).
Structures can show the parent of a compound that is named as a salt.

Columns and labels:
[1] = system: H9C2 cardiomyocytes; format: cell-based, rat
[2] = system: H9C2 cardiomyocytes; conditions: Dox only, 24 h, CCK-8

Compound | protection of H9C2 viability against Dox (control studies) [1] | concentration inducing cytotoxicity in H9C2 cardiomyocytes [2] [nM]
N[C@@H](CS)C(=O)O [Cys, cysteine] | no protective effect | –
COc1cccc2c1C(=O)c1c(O)c3c(c(O)c1C2=O)C[C@@](O)(C(=O)CO)C[C@@H]3O[C@H]1C[C@H](N)[C@H](O)[C@H](C)O1 [Dox, Doxorubicin hydrochloride] | – | ≥ 2500
C1COCCN1.COc1ccc(P(=S)(S)N2CCOCC2)cc1 (stereo not drawn) [GYY4137] | no effect on viability | –
